Article PMC7329800, “Reduction of the serotonin 5-HT1B and 5-HT2A receptor-mediated contraction of human pulmonary artery by the combined 5-HT1B receptor antagonist and serotonin transporter inhibitor LY393558” (Pharmacological Reports, 2020)
Values joined by “and” are separate entries in the source; they are usually repeats but may differ in a detail not shown here. Equal entries are not always repeated. Where two headings read alike, the source gives them in different places.

What was measured:
human pulmonary arteries [1] = assay: Contraction of isolated human pulmonary arteries by agonists alone (organ bath, cumulative concentration-response curves); format: cell-based; conditions: for EC50 / Emax: Homo sapiens
Procedure: (§1) Lung tissue was received from 29 men and 5 women (mean age 65 ± 2 years) with lung carcinoma (without PAH) undergoing lobectomy or pneumonectomy. Before the operation, they received cephalosporins and heparin as anti-infection and antithrombotic prophylaxis, respectively. Isolation of hPAs has been described previously. When necessary, endothelium was disrupted by rubbing of the lumen with horse hair. Arterial rings (3–5 mm in length and 2–4 mm in outer diameter) were mounted in 10 ml organ baths containing Tyrode’s solution [17] gassed with 95% O2 and 5% CO2 (37 °C, pH 7.4). Resting tension ranged from 19.6 to 24.5 mN (equivalent to transmural pressure of ~ 16 mmHg). Muscle tension was recorded by a force displacement transducer (BIO-SYS-TECH). After equilibration, rings were exposed to high KCl (60 mM) Tyrode’s solution (equimolar substitution of NaCl by KCl) to check tissue viability and maximum contraction and to phenylephrine (1 µM) followed by acetylcholine (10 µM) to verify if the endothelium is intact. […]. Concentrations of antagonists and citalopram were taken from previous studies. In each preparation, only one experimental curve was determined.
(§2) Results are given as mean ± SEM from n patients. Contractile responses were shown as percentages of the response to KCl 60 mM. GraphPad Prism 5.0 software was used to plot the mean data as sigmoidal CRCs. CRCs were used to determine potency (pEC50) and maximal effect (Emax) of agonists.

5-HT1B/1DR = target: T1, 5-HT1B/1DR (Homo sapiens, UniProt P28222); assay: Influence of antagonists on 5-CT-induced vasoconstriction of isolated human pulmonary arteries; format: cell-based; conditions: 5-CT in presence of SB224289 0.2 μM, GR55562 1 μM or LY393558 0.1 μM; control 5-CT (DMSO)
T1 construct: Arterial rings (3–5 mm in length and 2–4 mm in outer diameter) were mounted in 10 ml organ baths; from tissue; host or cells: human pulmonary artery rings from lung tissue removed at lobectomy or pneumonectomy
Procedure: Lung tissue was received from 29 men and 5 women (mean age 65 ± 2 years) with lung carcinoma (without PAH) undergoing lobectomy or pneumonectomy. Before the operation, they received cephalosporins and heparin as anti-infection and antithrombotic prophylaxis, respectively. Isolation of hPAs has been described previously. When necessary, endothelium was disrupted by rubbing of the lumen with horse hair. […] Muscle tension was recorded by a force displacement transducer (BIO-SYS-TECH). […] Concentrations of antagonists and citalopram were taken from previous studies. In each preparation, only one experimental curve was determined.
as §2

[2] = target: T2, thromboxane A2 (TP) receptor (Homo sapiens, UniProt P21731); assay: Influence of LY393558 on U46619-induced vasoconstriction of isolated human pulmonary arteries; format: cell-based
T2 construct: Arterial rings (3–5 mm in length and 2–4 mm in outer diameter) were mounted in 10 ml organ baths; from tissue; host or cells: human pulmonary artery rings from lung tissue removed at lobectomy or pneumonectomy
T2 sequence (P21731 1-343): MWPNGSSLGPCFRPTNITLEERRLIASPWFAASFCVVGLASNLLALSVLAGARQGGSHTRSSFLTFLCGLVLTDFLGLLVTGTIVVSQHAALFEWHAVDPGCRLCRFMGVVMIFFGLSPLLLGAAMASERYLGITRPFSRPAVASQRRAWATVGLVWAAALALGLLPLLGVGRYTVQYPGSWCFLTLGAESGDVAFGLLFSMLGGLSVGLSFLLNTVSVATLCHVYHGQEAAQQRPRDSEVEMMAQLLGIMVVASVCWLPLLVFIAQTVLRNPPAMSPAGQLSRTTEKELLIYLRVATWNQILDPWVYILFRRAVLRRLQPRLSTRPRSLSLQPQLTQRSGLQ
Procedure: as §1
(§3) Results are given as mean ± SEM from n patients. Contractile responses were shown as percentages of the response to KCl 60 mM. GraphPad Prism 5.0 software was used to plot the mean data as sigmoidal CRCs. […]

SERT = conditions: cited from earlier work
5-HT2ARs = target: 5-HT2ARs; set-up: method as in PMID 11734182; conditions: read-out: pKi at 5-HT2ARs (converted); cited from earlier work
α1-adrenoceptor = assay: Influence of LY393558 on phenylephrine-induced vasoconstriction of isolated human pulmonary arteries; format: cell-based
Procedure: as §1, §3

human pulmonary arteries [3] = assay: Influence of antagonists/inhibitors on 5-HT-induced vasoconstriction of isolated human pulmonary arteries; format: cell-based; conditions: for rightward shift of the CRC for 5-HT (factor): ketanserin 0.1 µM, SB224289 0.2 µM, GR55562 1 µM
Procedure: as §1, §2

5-HT2AR = target: T3, 5-HT2AR (Homo sapiens, UniProt P28223); assay: Influence of antagonists on α-methyl-5-HT-induced vasoconstriction of isolated human pulmonary arteries; format: cell-based; conditions: for Tension (contractile response to α-methyl-5-HT in absolute terms): α-methyl-5-HT in presence of ketanserin 0.01 μM or LY393558 0.1 μM, control α-methyl-5-HT (DMSO)
T3 construct: Arterial rings (3–5 mm in length and 2–4 mm in outer diameter) were mounted in 10 ml organ baths; from tissue; host or cells: human pulmonary artery rings from lung tissue removed at lobectomy or pneumonectomy
Procedure: Lung tissue was received from 29 men and 5 women (mean age 65 ± 2 years) with lung carcinoma (without PAH) undergoing lobectomy or pneumonectomy. Before the operation, they received cephalosporins and heparin as anti-infection and antithrombotic prophylaxis, respectively. Isolation of hPAs has been described previously. When necessary, endothelium was disrupted by rubbing of the lumen with horse hair. […] Muscle tension was recorded by a force displacement transducer (BIO-SYS-TECH). After equilibration, rings were exposed to high KCl (60 mM) Tyrode’s solution (equimolar substitution of NaCl by KCl) to check tissue viability and maximum contraction and to phenylephrine (1 µM) followed by acetylcholine (10 µM) to verify if the endothelium is intact. […] Concentrations of antagonists and citalopram were taken from previous studies. In each preparation, only one experimental curve was determined.
as §2

human pulmonary arteries [4] = test system: human pulmonary arteries; set-up: method as in PMID 19541711; conditions: hPAs, other studies; cited from earlier work
[5] = agonist alone, DMSO vehicle control, endothelium-intact hPAs
[6] = agonist alone, endothelium removed (-ENDO)
[7] = agonist alone, endothelium-intact hPAs
[8] = agonist alone (control of LY393558 experiment, Fig. 3), endothelium-intact hPAs
[9] = 5-HT in presence of: citalopram 1 μM, SB224289 0.2 μM, GR55562 1 μM, ketanserin 0.1 μM or combinations, 45 min incubation, endothelium-intact
[10] = SB224289 0.2 μM, GR55562 1 μM, ketanserin 0.1 μM, endothelium-intact

T3 sequence (P28223 whole entry): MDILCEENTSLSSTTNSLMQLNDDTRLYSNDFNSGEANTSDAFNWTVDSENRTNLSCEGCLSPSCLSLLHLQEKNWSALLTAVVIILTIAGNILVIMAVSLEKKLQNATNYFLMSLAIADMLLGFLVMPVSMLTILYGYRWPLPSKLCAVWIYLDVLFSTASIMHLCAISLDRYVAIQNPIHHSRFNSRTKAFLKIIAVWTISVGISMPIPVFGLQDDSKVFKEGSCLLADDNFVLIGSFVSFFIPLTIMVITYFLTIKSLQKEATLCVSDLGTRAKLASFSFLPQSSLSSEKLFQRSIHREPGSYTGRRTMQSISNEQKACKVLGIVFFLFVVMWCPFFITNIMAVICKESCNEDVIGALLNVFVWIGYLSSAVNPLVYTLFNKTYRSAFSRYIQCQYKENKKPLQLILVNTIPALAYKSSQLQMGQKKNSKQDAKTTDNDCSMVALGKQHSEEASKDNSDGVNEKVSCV
T1 sequence (P28222 whole entry): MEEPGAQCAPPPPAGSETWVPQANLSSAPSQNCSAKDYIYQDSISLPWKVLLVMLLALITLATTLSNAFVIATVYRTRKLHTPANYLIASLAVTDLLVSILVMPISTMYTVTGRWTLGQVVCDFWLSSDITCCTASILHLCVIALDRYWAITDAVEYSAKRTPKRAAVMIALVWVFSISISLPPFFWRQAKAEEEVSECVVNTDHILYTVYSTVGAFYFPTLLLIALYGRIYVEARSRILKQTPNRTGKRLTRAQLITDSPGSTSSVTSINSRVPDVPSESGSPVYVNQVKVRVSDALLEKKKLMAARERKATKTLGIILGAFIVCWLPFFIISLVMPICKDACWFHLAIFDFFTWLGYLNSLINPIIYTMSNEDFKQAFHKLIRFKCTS

Structure (SMILES): NCCc1c[nH]c2ccc(O)cc12 [5-HT, serotonin]
- EC50 (human pulmonary arteries [1]; [5]): 457 nM
- EC50 (human pulmonary arteries [1]; [6]): 1700 nM
- EC50 (human pulmonary arteries [1]; [7]): 631 nM
- Emax (human pulmonary arteries [1]; read-out: Emax (percentage of the response to 60 mM KCl), agonist alone, DMSO vehicle control, endothelium-intact hPAs): 82 ± 4%
- Emax (human pulmonary arteries [1]; read-out: Emax (percentage of the response to 60 mM KCl), agonist alone, endothelium removed (-ENDO)): 92 ± 4%
- Emax (human pulmonary arteries [1]; read-out: Emax (percentage of the response to 60 mM KCl), agonist alone, endothelium-intact hPAs): 94 ± 4%
- Tension (contractile response in absolute terms) (human pulmonary arteries [1]; [5]): 8.5 ± 1.8 mN
- Tension (contractile response in absolute terms) (human pulmonary arteries [1]; [6]): 9.4 ± 1.2 mN
- Tension (contractile response in absolute terms) (human pulmonary arteries [1]; [7]): 9.7 ± 1.0 mN

Structure (SMILES): CC(C)N1Cc2cc(S(C)(=O)=O)ccc2N(CCN2CC=C(c3c[nH]c4cc(F)ccc34)CC2)S1(=O)=O [LY393558]
- Tension (contractile response to 5-CT in absolute terms) (5-HT1B/1DR): 7.3 ± 2.0 mN
- effect on the vasoconstrictory effects of U46619 ([2]; LY393558 0.1 µM): did not modify
- pA2 at human TP receptors ([2]; from lack of effect of 0.1 µM on U46619 response): < 7.0
- Ki (SERT; read-out: Ki (SERT inhibition)): ~1 nM
- Ki (5-HT2ARs): ~100 nM
- effect on the vasoconstrictory effects of phenylephrine (α1-adrenoceptor; LY393558 0.1 µM): did not modify
- pA2 at human α1 receptors (α1-adrenoceptor; from lack of effect of 0.1 µM on phenylephrine response): < 7.0
- Tension (contractile response to 5-HT in absolute terms) (human pulmonary arteries [3]; 5-HT + LY393558 0.1 μM, control 5-HT (DMSO), endothelium-intact): 9.1 ± 1.7 mN
- pA2 against 5-HT (human pulmonary arteries [3]; LY393558 0.1 μM, control 5-HT (DMSO), endothelium-intact): 8.3 and 8.25
- Tension (contractile response to α-methyl-5-HT in absolute terms) (5-HT2AR): 10.5 ± 2.4 mN

Structure (SMILES): CCCCC[C@H](O)/C=C/[C@@H]1[C@@H](C/C=C\CCCC(=O)O)[C@H]2CO[C@@H]1C2 [U46619]
- Emax (relative to the KCl-induced response) (human pulmonary arteries [1]; [8]): 109 ± 6%
- pEC50 (human pulmonary arteries [1]; [8]): 8.60 ± 0.10

Structure (SMILES): O=C(c1ccc(F)cc1)C1CCN(CCn2c(=O)[nH]c3ccccc3c2=O)CC1 [Ketanserin, ketanserin]
- Tension (contractile response to 5-HT in absolute terms) (human pulmonary arteries [3]; [9]): 7.7 ± 1.2 mN
- pA2 against 5-HT (human pulmonary arteries [3]; [10]): 7.40
- pA2 against 5-HT (human pulmonary arteries [3]; SB224289 0.2 μM, GR55562 1 μM, ketanserin 0.1 μM, endothelium-intact, listed as ketanserin): 7.4
- rightward shift of the CRC for 5-HT (factor) (human pulmonary arteries [3]): 3
- vasoconstriction induced by α-methyl-5-HT diminished by (5-HT2AR; LY393558, ketanserin 0.01 µM (Discussion)): 30%
- Tension (contractile response to α-methyl-5-HT in absolute terms) (5-HT2AR): 9.7 ± 2.3 mN

Structure (SMILES): CN(C)CCCc1cc(C(=O)Nc2ccc(-c3ccncc3)cc2)ccc1O [GR55562]
- Tension (contractile response to 5-HT in absolute terms) (human pulmonary arteries [3]; [9]): 7.2 ± 2.0 mN
- pA2 against 5-HT (human pulmonary arteries [3]; [10]): 6.6 and 6.63
- rightward shift of the CRC for 5-HT (factor) (human pulmonary arteries [3]): 5

Structure (SMILES): Cc1nc(-c2ccc(-c3ccc(C(=O)N4CCc5cc6c(cc54)C4(CCN(C)CC4)CO6)cc3)c(C)c2)no1 [SB224289]
- Tension (contractile response to 5-CT in absolute terms) (5-HT1B/1DR): 10.0 ± 3.3 mN
- affinity for the SERT (SERT): has no affinity for the SERT
- Tension (contractile response to 5-HT in absolute terms) (human pulmonary arteries [3]; [9]): 7.0 ± 1.9 mN
- pA2 against 5-HT (human pulmonary arteries [3]; [10]): 7.0 and 7.02

Structure (SMILES): CNC[C@H](O)c1cccc(O)c1 [phenylephrine, (–)-phenylephrine]
- EC50 (human pulmonary arteries [1]; [8]): 3160 nM
- Emax (human pulmonary arteries [1]; agonist alone (control of LY393558 experiment, Fig. 3), endothelium-intact hPAs, read-out: Emax (relative to the KCl-induced response)): 68 ± 5%

Structure (SMILES): NCCc1c[nH]c2ccc(C(N)=O)cc12 [5-CT, 5-carboxamidotryptamine]
- efficiency less than that of 5-HT (human pulmonary arteries [4]): 50%
- Emax (percentage of the response to 60 mM KCl) (human pulmonary arteries [1]; [5]): 73 ± 6%
- Tension (contractile response in absolute terms) (human pulmonary arteries [1]; [5]): 8.0 ± 1.0 mN
- pEC50 (human pulmonary arteries [1]; [5]): 6.36 ± 0.09
- efficacy lower than that of 5-HT (human pulmonary arteries [1]; hPAs, this study): 20%

Structure (SMILES): CN(C)CCCC1(c2ccc(F)cc2)OCc2cc(C#N)ccc21 (stereo not drawn) [Citalopram]
- Tension (contractile response to 5-HT in absolute terms) (human pulmonary arteries [3]; 5-HT + citalopram 1 μM, endothelium removed (-ENDO)): 7.6 ± 1.3 mN
- Tension (contractile response to 5-HT in absolute terms) (human pulmonary arteries [3]; [9]): 8.9 ± 1.3 mN
- influence on the potency of 5-HT (human pulmonary arteries [3]; citalopram 1 µM, endothelium-denuded preparations): enhanced the potency of 5-HT
- influence on the CRC for 5-HT (human pulmonary arteries [3]; citalopram 1 µM, endothelium-intact hPAs): did not influence the CRC for 5-HT

Structure (SMILES): CC(N)Cc1c[nH]c2ccc(O)cc12 (stereo not drawn) [α-Methyl-5-HT, α-methyl-5-HT]
- Emax (percentage of the response to 60 mM KCl) (human pulmonary arteries [1]; [5]): 79 ± 5%
- Tension (contractile response in absolute terms) (human pulmonary arteries [1]; [5]): 10.5 ± 1.0 mN
- pEC50 (human pulmonary arteries [1]; [5]): 5.89 ± 0.08
